This is an account of results in US20040147605A1, “Drug preparations” (priority 2001, published 2004).

In this assay the test system is male Hartley guinea pigs. In words: Antitussive effect test: capsaicin-induced cough in guinea pigs with SO2-induced respiratory tract inflammation. The settings on record: for Frequency of cough: capsaicin 10^-6 mol/l spray, coughs counted over 15 minutes, control group 22.4 ± 0.8; for Antitussive effect (in words): summary of Table 1, administered alone or in combination. The class given is in vivo, guinea pig. An excerpt:
The synergetic effect of using fudosteine and an antitussive compound in combination was examined according to the following method.
Five male Hartley guinea pigs for one group, each having a weight of 300-400 g, were used as test animals. According to the method of Miyata et al. (Arch. Int. Pharmacodyn. Ther., vol. 304, p. 277, 1990), the guinea pigs were exposed to SO2 gas using an exposure apparatus for two hours a day in eight consecutive days to cause respiratory tract inflammation. The samples of which the components and dose are shown in Table 1 were orally administered before exposure to SO2 gas once a day in eight consecutive days since the start date of exposure. The guinea pigs were confined in a chamber without being anesthetized. On the date following the last SO2 exposure date, capsaicin (10^−6 mol/l) was sprayed over the chamber for two minutes using a ultrasonic nebulizer (TUR-3200, Nihon Kohden Corporation) to cause cough in the guinea pigs. […] The frequency of cough during this period was counted.

As for `COc1ccc2c(c1)[C@]13CCCC[C@@H]1[C@H](C2)N(C)CC3` [Dextromethorphan], the “Antitussive effect (in words)” value was “exhibited an antitussive effect”. The Frequency of cough (dextromethorphan 150 mg/kg orally once a day for 8 days) turned out to be 13.6 ± 1.0. In addition, for the setting “dextromethorphan 300 mg/kg orally once a day for 8 days”, the Frequency of cough is reported as 10.2 ± 0.6 ^$.
In the case of `N[C@@H](CSCCCO)C(=O)O` [Fudosteine, S-(3-hydroxypropyl)-L-cysteine], the “Antitussive effect (in words)” value was “did not exhibit an antitussive effect”. The Frequency of cough (fudosteine 30 mg/kg orally once a day for 8 days) amounted to 22.6 ± 1.1.
